# Laboratory results reported in patent US11912699B2, “Tau-protein targeting compounds and associated” (Arvinas Operations, Inc., priority 2019, dated 2024).
# Target: T1, Tau P301L (Homo sapiens, UniProt P10636, P618L)
# T1 construct: expressed in transfected cells
# Assay: In vitro tau degradation assay in CHOK1 Tau P301L cells (sarkosyl insoluble tau, WES)
# Type: cell-based
# Details: CHO-K1; remaining tau protein in sarkosyl insoluble pellet; CHOK1 Tau P301L cells treated 48 hours with test compound at 1 μM, doxycycline removed for the last 24 hours; relative to DMSO doxycycline control; read-out: Tau Protein Degradation effect at 1 μM
# Experimental: Exemplary bifunctional molecules of the present disclosure are represented by the structures in Table 1, which includes associated data. In vitro tau protein degradation data in CHOK1 Tau P301L cells, as described below, is reported based on the remaining tau protein in the sarkosyl insoluble pellet following treatment of cells for 48 hours with test compound at the 1 μM concentration where the last 24 hours doxycycline was removed. The data are represented relative to DMSO doxycycline control: • A ≤50% of tau protein remaining (>50% of tau protein degraded) • B >50% of tau protein remaining ([…] of tau protein degraded)
# Data for compounds in Table 1 was generated using in vitro tau Degradation Assay protocol as described in Methods for FIGS. 2A and 2B below.
# FIGS. 2A and 2B. (2A) Tau expression was induced by addition (+) of doxycycline (1 μg/ml) to ChoK1-Tau P301L clone D1.
# In vitro tau Degradation Assay for FIGS. 2A and 2B. T-Rex CHOK1 cells are maintained in Ham's F-12 Nutrient Mix (ThermoFisher) plus 10% Fetal Bovine Serum Tetracycline Negative (Corning) with 10 ug/mL Blasticidin S HCl (Gibco) and 200 ug/mL Zeocin (100 mg/mL, Invitrogen). A stable clone expressing Tau P301L in the presence of doxycycline (1 μg/ml), clone D1 was selected. Compounds were diluted to indicated concentrations and used to treat cells for the indicated times. Cells were harvested from either 96, 24, 6, or 10 cm dishes coated with Poly-D-Lysine (Corning) in ice cold PBS or Buffer H+HALT Protease and phosphatase inhibitors (Thermofisher). Sarkosyl Insoluble tau was isolated as described in Eckermann et al. and Greenberg and Davies, accordingly. WES™ capillary electrophoresis analysis was performed on the Sarkosyl Insoluble tau fraction using Tau1 antibody (Milipore) unless otherwise indicated, as specified in the manufacturers specification (ProteinSimple).
# T1 sequence (P10636 1-441 isoform P10636-8 P301L): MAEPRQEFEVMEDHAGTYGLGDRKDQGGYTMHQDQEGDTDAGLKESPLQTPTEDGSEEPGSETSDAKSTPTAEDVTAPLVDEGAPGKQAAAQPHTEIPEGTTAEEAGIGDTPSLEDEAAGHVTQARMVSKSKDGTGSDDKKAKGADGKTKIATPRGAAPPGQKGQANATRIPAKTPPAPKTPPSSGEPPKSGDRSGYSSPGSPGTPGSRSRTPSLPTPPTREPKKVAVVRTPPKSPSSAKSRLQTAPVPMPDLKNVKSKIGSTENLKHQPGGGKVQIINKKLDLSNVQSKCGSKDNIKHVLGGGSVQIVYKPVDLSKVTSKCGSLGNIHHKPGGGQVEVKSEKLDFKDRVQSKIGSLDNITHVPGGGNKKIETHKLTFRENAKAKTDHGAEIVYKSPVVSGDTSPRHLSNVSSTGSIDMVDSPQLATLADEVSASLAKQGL
row,Compound,remaining activity at 1 µM [%]
1,"O=C1CCC(N2C(=O)c3ccc(OCCOCCOCCOCCOc4ccc5cc(-n6ccc7ccncc76)ncc5c4)cc3C2=O)C(=O)N1 (centres unmarked) [Compound 384, 5-(2-(2-(2-(2-((3-(1H-pyrrolo[2,3-c]pyridin-1-yl)isoquinolin-7-yl)oxy)ethoxy)ethoxy)ethoxy)ethoxy)-2-(2,6-dioxopiperidin-3-yl)isoindoline-1,3-dione]",> 50
2,"Cn1c2ccncc2c2ccc(-c3ccc(O[C@H]4C[C@H](OC5CCN(CCCOc6ccc7c(c6)C(=O)N(C6CCC(=O)NC6=O)C7=O)CC5)C4)nc3)cc21 (some centres unmarked) [Compound 385, 2-(2,6-dioxopiperidin-3-yl)-5-(3-(4-((1r,3r)-3-((5-(5-methyl-5H-pyrido[4,3-b]indol-7-yl)pyridin-2-yl)oxy)cyclobutoxy)piperidin-1-yl)propoxy)isoindoline-1,3-dione]",> 50
3,"Cn1c2ccncc2c2ccc(-c3ccc(O[C@H]4C[C@H](OC5CCN(CCCN6CC(Oc7ccc8c(c7)C(=O)N(C7CCC(=O)NC7=O)C8=O)C6)CC5)C4)nc3)cc21 (some centres unmarked) [Compound 388, 2-(2,6-dioxopiperidin-3-yl)-5-((1-(3-(4-((1r,3r)-3-((5-(5-methyl-5H-pyrido[4,3-b]indol-7-yl)pyridin-2-yl)oxy)cyclobutoxy)piperidin-1-yl)propyl)azetidin-3-yl)oxy) isoindoline-1,3-dione]",< 50
4,"Cc1ncsc1-c1ccc([C@H](C)NC(=O)[C@@H]2C[C@@H](O)CN2C(=O)[C@@H](NC(=O)CN2CCN(CCN3CCC(O[C@H]4C[C@H](Oc5ccc(-c6ccc7c8cnccc8n(C)c7c6)cn5)C4)CC3)CC2)C(C)(C)C)cc1 [Compound 389, (2S,4R)-1-((S)-3,3-dimethyl-2-(2-(4-(2-(4-((1r,3r)-3-((5-(5-methyl-5H-pyrido[4,3-b]indol-7-yl)pyridin-2-yl)oxy)cyclobutoxy)piperidin-1-yl)ethyl)piperazin-1-yl)acetamido)butanoyl)-4-hydroxy-N-((S)-1-(4-(4-methylthiazol-5-yl)phenyl)ethyl) pyrrolidine-2-carboxamide]",< 50
5,"Cc1ncsc1-c1ccc([C@H](C)NC(=O)[C@@H]2C[C@@H](O)CN2C(=O)[C@@H](c2cc(N3CCN(CCO[C@H]4C[C@H](Oc5ccc(-c6ccc7c8cnccc8n(C)c7c6)cn5)C4)CC3)no2)C(C)C)cc1 [Compound 391, (2S,4R)-4-hydroxy-1-((R)-3-methyl-2-(3-(4-(2-((1r,3R)-3-((5-(5-methyl-5H-pyrido[4,3-b]indol-7-yl)pyridin-2-yl)oxy)cyclobutoxy)ethyl)piperazin-1-yl)isoxazol-5-yl)butanoyl)-N-((S)-1-(4-(4-methylthiazol-5-yl)phenyl)ethyl) pyrrolidine-2-carboxamide]",< 50
6,"Cc1ncsc1-c1ccc([C@H](C)NC(=O)[C@@H]2C[C@@H](O)CN2C(=O)[C@@H](c2cc(OCCN3CCC(O[C@H]4C[C@H](Oc5ccc(-c6ccc7c8cnccc8n(C)c7c6)cn5)C4)CC3)no2)C(C)C)cc1 [Compound 398, (2S,4R)-4-hydroxy-1-((R)-3-methyl-2-(3-(2-(4-((1r,3R)-3-((5-(5-methyl-5H-pyrido[4,3-b]indol-7-yl)pyridin-2-yl)oxy)cyclobutoxy)piperidin-1-yl)ethoxy)isoxazol-5-yl)butanoyl)-N-((S)-1-(4-(4-methylthiazol-5-yl)phenyl)ethyl) pyrrolidine-2-carboxamide]",< 50

# The next lines start with the values.
row,remaining activity at 1 µM [%],Compound
1,< 50,"Cn1c2ccncc2c2ccc(-c3ccc(O[C@H]4C[C@H](CN5CC6(CN(CCOc7ccc8c(c7)C(=O)N(C7CCC(=O)NC7=O)C8=O)C6)C5)C4)nc3)cc21 (some centres unmarked) [Compound 386, 2-(2,6-dioxo-3-piperidyl)-5-[2-[2-[[3-[[5-(5-methylpyrido[4,3-b]indol-7-yl)-2-pyridyl]oxy]cyclobutyl]methyl]-2,6-diazaspiro[3.3]heptan-6-yl]ethoxy]isoindoline-1,3-dione diformate]"
2,< 50,"Cn1c2ccncc2c2ccc(-c3ccc(O[C@H]4C[C@H](CN5CCN(CCCCCOc6ccc7c(c6)C(=O)N(C6CCC(=O)NC6=O)C7=O)CC5)C4)nc3)cc21 (some centres unmarked) [Compound 387, 2-(2,6-dioxopiperidin-3-yl)-5-((5-(4-(((1r,3r)-3-((5-(5-methyl-5H-pyrido[4,3-b]indol-7-yl)pyridin-2-yl)oxy)cyclobutyl)methyl)piperazin-1-yl)pentyl)oxy) isoindoline-1,3-dione]"
3,> 50,"Cn1c2ccncc2c2ccc(-c3ccc(N4CCC(CN5CCN(c6ccc7c(c6)C(=O)N(C6CCC(=O)NC6=O)C7=O)CC5)CC4)nc3)cc21 (centres unmarked) [Compound 390, 2-(2,6-dioxopiperidin-3-yl)-5-(4-[[1-(5-[5-methyl-5H-pyrido[4,3-b]indol-7-yl]pyridin-2-yl)piperidin-4-yl]methyl]piperazin-1-yl)-2,3-dihydro-1H-isoindole-1,3-dione]"
4,> 50,"Cn1c2ccncc2c2ccc(-c3ccc(O[C@H]4C[C@H](N(C)C5CC6(C5)CN(CCOc5ccc7c(c5)C(=O)N(C5CCC(=O)NC5=O)C7=O)C6)C4)nc3)cc21 (some centres unmarked) [Compound 392, 2-(2,6-dioxopiperidin-3-yl)-5-(2-(6-(methyl((1r,3r)-3-((5-(5-methyl-5H-pyrido[4,3-b]indol-7-yl)pyridin-2-yl)oxy)cyclobutyl)amino)-2-azaspiro[3.3]heptan-2-yl)ethoxy) isindoline-1,3-dione]"
5,< 50,"Cn1c2ccncc2c2ccc(-c3ccc(O[C@H]4C[C@H](CN5CCC(CCCCCOc6ccc7c(c6)C(=O)N(C6CCC(=O)NC6=O)C7=O)CC5)C4)nc3)cc21 (some centres unmarked) [Compound 393, 2-(2,6-dioxopiperidin-3-yl)-5-((5-(1-(((1r,3r)-3-((5-(5-methyl-5H-pyrido[4,3-b]indol-7-yl)pyridin-2-yl)oxy)cyclobutyl)methyl)piperidin-4-yl)pentyl)oxy) isoindoline-1,3-dione]"
6,> 50,"Cn1c2ccncc2c2ccc(-c3ccc(O[C@H]4C[C@H](CN5CCC(CCCN6CC(Oc7ccc8c(c7)C(=O)N(C7CCC(=O)NC7=O)C8=O)C6)CC5)C4)nc3)cc21 (some centres unmarked) [Compound 394, 2-(2,6-dioxopiperidin-3-yl)-5-((1-(3-(1-(((1r,3r)-3-((5-(5-methyl-5H-pyrido[4,3-b]indol-7-yl)pyridin-2-yl)oxy)cyclobutyl)methyl)piperidin-4-yl)propyl)azetidin-3-yl)oxy)isoindoline-1,3-dione]"
7,< 50,"Cn1c2ccncc2c2ccc(-c3ccc(N4CCC(CCN5CCN(c6ccc7c(c6)C(=O)N(C6CCC(=O)NC6=O)C7=O)CC5)CC4)nc3)cc21 (centres unmarked) [Compound 397, 2-(2,6-dioxopiperidin-3-yl)-5-(4-(2-(1-(5-(5-methyl-5H-pyrido[4,3-b]indol-7-yl)pyridin-2-yl)piperidin-4-yl)ethyl)piperazin-1-yl)isindoline-1,3-dione]"

# Same assay, conditions: remaining tau protein in sarkosyl insoluble pellet; CHOK1 Tau P301L cells treated 48 hours with test compound at 1 μM, doxycycline removed for the last 24 hours; relative to DMSO doxycycline control
row,Compound,Tau Protein Degradation effect at 1 μM
1,Cc1ncsc1-c1ccc([C@H](C)NC(=O)[C@@H]2C[C@@H](O)CN2C(=O)[C@@H](c2cc(OCCOCCOCCOc3ccc(-c4ccc5c(c4)[nH]c4ccncc45)cn3)no2)C(C)C)cc1 [Compound 396],A (≤50% of tau protein remaining (>50% of tau protein degraded))
